According to paper PMC7562719, “Discovery of a CNS penetrant small molecule SMN2 splicing modulator with improved tolerability for spinal muscular atrophy” (Scientific Reports, 2020):
Read-outs that look alike come from different tables or passages of the source.

Assays:
[1] = tested on: TK6 cells
Procedure: These articles have been recommended for use in the OECD test guideline (Test No. 487)[49]. For metabolic activation, pre-cultured TK6 cells with the culture medium were supplemented with Sprague–Dawley rat liver mix (S9 mix, IEDA TRADING CORPORATION, Japan) at 3.33 vol%. Then, compound was mixed with the cell suspension and treated under the following treatment conditions: • Short-term treatment for 3 h without S9 mix, followed by a 21-h culture (−S9 mix assay), • Short-term treatment for 3 h with S9 mix, followed by a 21-h culture (+S9 mix assay), or • Continuous treatment for 24 h without S9 mix (24-h assay). For treatment conditions 1 and 2, the cells in each well were centrifuged after the 3-h treatment, the supernatants were discarded, and the cells were washed twice with culture medium. The cells were further cultured with fresh culture medium for 21 h. The compound-treated cells were examined by the unaided eye for precipitation of compound at the start and end of treatment. After treatment, the rest of each cell suspension was centrifuged and then the cells were suspended in a 0.075 mol/L KCl solution at room temperature for 10 min. Then, 25 vol% acetic acid containing methanol was added and the centrifuged cells were fixed. The fixed cells were resuspended in a small amount of 3 vol% acetic acid containing methanol, which was changed two times by centrifugation. Finally, a drop of the cell suspension was transferred onto a slide and dried at room temperature. The slides were stained at room temperature in a 3 vol% Giemsa solution (Merck KGaA) diluted with Sörensen phosphate buffer (1/15 mol/L, pH 6.8, Muto Pure Chemicals Co. Ltd.). Four slides per dose (2 slides per well) were prepared. Each slide was coded randomly. The test was conducted at the following doses of TEC-1. -S9 mix assay: 1.5, 1.7, 1.9, 2.1, 2.3, 2.5, 2.7, 2.9, and 3.1 µg/mL, + S9 mix assay: 1.9, 2.1, 2.3, 2.5, 2.7, 2.9, 3.1, 3.3, and 3.5 µg/mL, 24-h assay: 0.9, 1.1, 1.3, 1.5, 1.7, 1.9, 2.1, 2.3, and 2.5 µg/mL. To perform scoring for compound and negative control groups, the number of cells in the suspensions was counted using a Coulter Counter (Z2; Beckman Coulter, Inc.). The positive control groups were not determined. A portion (0.5 mL) of the cell suspension was diluted with 20 mL of Isoton II, and 0.5 mL of this solution was used for cell counts. The cell number per 1 mL at each culture was calculated by the following formula. Cellnumber/mL=Dilutionfactor×valueof1stcount+valueof2ndcount/2×2
The population doubling (PD) and relative population doubling (RPD) at each concentration was calculated by the following formula. PD=log10cell number at the end of culture/cell number at the start of treatment∗/log102∗:1×10^5cells/mL.
RPD%=PD of the compound-treated group/PD of the negative control group×100 For the treated groups, the 3 consecutive concentrations were selected as follows. […] For all concentrations, 4000 mononuclear cells with cytoplasm were analyzed and the number of cells with micronucleus (micronuclei) was counted using a microscope (× 600). Micronucleus is identified as a round or oval small nucleus in the cytoplasm with the same staining intensity as the main nucleus. The diameter of each micronucleus should be less than 1/2 of the diameter of the main nucleus. Two investigators observed the slides. Each investigator scored 1000 cells for the frequency of micronucleated cells. Data from the two investigators were combined for each culture and the combined data from duplicate cultures were pooled for each concentration for each treatment condition. A cell having one or more micronuclei was recorded as a micronucleated cell.

[2] = general in vitro toxicity and ADME tests; conditions: solubility, PAMPA, MDR1, stability, CYP inhibition, CYP induction/PXR, hERG, cytotoxicity, umu, Ames, in vitro micronucleus test

Cc1cn2nc(-c3nc4ccc(N5CCN(C)CC5)cc4c(=O)[nH]3)cc2c(C)n1 [TEC-1, 2-(4,6-dimethylpyrazolo[1,5-a]pyrazin-2-yl)-6-(4-methylpiperazin-1-yl)quinazolin-4(3H)-one]
micronucleus induction, overall conclusion [1]: do not induce micronucleation
concentration at which precipitation was noted ([1]; 24-h assay condition, culture medium): ≥ 1500 ng/mL
concentration at which cytotoxicity (RPD of less than 50%) was noted ([1]; human, 3 h): ≥ 2300 ng/mL
Micronucleated cells (%) ([1]; human, 3 h, 1.9 µg/mL): (0.73) %
Micronucleated cells Total ([1]; human, 3 h, 1.9 µg/mL): 29
Micronucleated cells Well 1 ([1]; human, 3 h, 1.9 µg/mL): 13
Micronucleated cells Well 2 ([1]; human, 3 h, 1.9 µg/mL): 16
Relative population doubling ([1]; human, 3 h, 1.9 µg/mL): 68.6%
Micronucleated cells (%) ([1]; human, 3 h, 2.1 µg/mL): (0.9) %
Micronucleated cells Total ([1]; human, 3 h, 2.1 µg/mL): 36
Micronucleated cells Well 1 ([1]; human, 3 h, 2.1 µg/mL): 16
Micronucleated cells Well 2 ([1]; human, 3 h, 2.1 µg/mL): 20
Relative population doubling ([1]; human, 3 h, 2.1 µg/mL): 65.4%
Micronucleated cells (%) ([1]; human, 3 h, 2.3 µg/mL): (1.4) **^,## %
Micronucleated cells Total ([1]; human, 3 h, 2.3 µg/mL): 56
Micronucleated cells Well 1 ([1]; human, 3 h, 2.3 µg/mL): 29
Micronucleated cells Well 2 ([1]; human, 3 h, 2.3 µg/mL): 27
Relative population doubling ([1]; human, 3 h, 2.3 µg/mL): 35.0%
Micronucleated cells (%) ([1]; human, 24 h, 1.1 µg/mL): (0.85) %
Micronucleated cells Total ([1]; human, 24 h, 1.1 µg/mL): 34
Micronucleated cells Well 1 ([1]; human, 24 h, 1.1 µg/mL): 21
Micronucleated cells Well 2 ([1]; human, 24 h, 1.1 µg/mL): 13
Relative population doubling ([1]; human, 24 h, 1.1 µg/mL): 81.7%
Micronucleated cells (%) ([1]; human, 24 h, 1.3 µg/mL): (0.73) %
Micronucleated cells Total ([1]; human, 24 h, 1.3 µg/mL): 29
Micronucleated cells Well 1 ([1]; human, 24 h, 1.3 µg/mL): 17
Micronucleated cells Well 2 ([1]; human, 24 h, 1.3 µg/mL): 12
Relative population doubling ([1]; human, 24 h, 1.3 µg/mL): 74.4%
Micronucleated cells (%) ([1]; human, 24 h, 1.5 µg/mL): (0.8) %
Micronucleated cells Total ([1]; human, 24 h, 1.5 µg/mL): 32
Micronucleated cells Well 1 ([1]; human, 24 h, 1.5 µg/mL): 17
Micronucleated cells Well 2 ([1]; human, 24 h, 1.5 µg/mL): 15
Relative population doubling ([1]; human, 24 h, 1.5 µg/mL): 69.5%
general in vitro toxicity and ADME profile [2]: good profiles
